Columns and labels:
[1] = system: A498; assay: NCI IVCLSP growth inhibition (SRB), A498; assay type: cell-based, human; settings: renal cancer A498 cell
Experimental: (§1) FIG. 1 presents nine compounds that were tested using the National Cancer Institute (NCI) 60 human tumor cell lines. The cells lines, which represent leukemia, melanoma, and cancers of the lung, colon, brain, ovary, breast, prostate, and kidney, are listed in Table 1.
Compounds 1-9 were tested according to the NCI Developmental Therapeutics Program (DTP) In Vitro Cell Line Screening Project (IVCLSP). […] Methodology for testing under the IVCLSP is as follows: The human tumor cell lines of the cancer screening panel are grown in RPMI 1640 medium containing 5% fetal bovine serum and 2 mM L-glutamine. […]
Following drug addition, the plates are incubated for an additional 48 h at 37° C., 5% CO2, 95% air, and 100% relative humidity. […] Bound stain is subsequently solubilized with 10 mM trizma base, and the absorbance is read on an automated plate reader at a wavelength of 515 nm. […] Using the seven absorbance measurements [time zero, (Tz), control growth, (C), and test growth in the presence of drug at the five concentration levels (Ti)], the percentage growth is calculated at each of the drug concentrations levels. Percentage growth inhibition is calculated as: [(Ti−Tz)/(C−Tz)]×100 for concentrations for which Ti>/=Tz [(Ti−Tz)/Tz]×100 for concentrations for which Ti<Tz.
Three dose response parameters are calculated for each experimental agent. […]

[2] = system: NCI 60 human tumor cell lines; assay: NCI IVCLSP growth inhibition, whole panel (text summaries); assay type: cell-based; settings: NCI 60 tumor panel
Experimental: as §1
Compounds 1-9 were tested according to the NCI Developmental Therapeutics Program (DTP) In Vitro Cell Line Screening Project (IVCLSP). […] Methodology for testing under the IVCLSP is as follows: The human tumor cell lines of the cancer screening panel are grown in RPMI 1640 medium containing 5% fetal bovine serum and 2 mM L-glutamine. For a typical screening experiment, cells are inoculated into 96 well microtiter plates in 100 μL at plating densities ranging from 5,000 to 40,000 cells/well depending on the doubling time of individual cell lines. After cell inoculation, the microtiter plates are incubated at 37° C., 5% CO2, 95% air and 100% relative humidity for 24 h prior to addition of experimental drugs.
After 24 h, two plates of each cell line are fixed in situ with TCA, to represent a measurement of the cell population for each cell line at the time of drug addition (Tz). Experimental drugs are solubilized in dimethyl sulfoxide at 400-fold the desired final maximum test concentration and stored frozen prior to use. At the time of drug addition, an aliquot of frozen concentrate is thawed and diluted to twice the desired final maximum test concentration with complete medium containing 50 μg/ml gentamicin. Additional four, 10-fold or ½ log serial dilutions are made to provide a total of five drug concentrations plus control. Aliquots of 100 μl of these different drug dilutions are added to the appropriate microtiter wells already containing 100 μl of medium, resulting in the required final drug concentrations.
Following drug addition, the plates are incubated for an additional 48 h at 37° C., 5% CO2, 95% air, and 100% relative humidity. For adherent cells, the assay is terminated by the addition of cold TCA. Cells are fixed in situ by the gentle addition of 50 μl of cold 50% (w/v) TCA (final concentration, 10% TCA) and incubated for 60 minutes at 4° C. The supernatant is discarded, and the plates are washed five times with tap water and air dried. Sulforhodamine B (SRB) solution (100 μl) at 0.4% (w/v) in 1% acetic acid is added to each well, and plates are incubated for 10 minutes at room temperature. After staining, unbound dye is removed by washing five times with 1% acetic acid and the plates are air dried. Bound stain is subsequently solubilized with 10 mM trizma base, and the absorbance is read on an automated plate reader at a wavelength of 515 nm. For suspension cells, the methodology is the same except that the assay is terminated by fixing settled cells at the bottom of the wells by gently adding 50 μl of 80% TCA (final concentration, 16% TCA). Using the seven absorbance measurements [time zero, (Tz), control growth, (C), and test growth in the presence of drug at the five concentration levels (Ti)], the percentage growth is calculated at each of the drug concentrations levels. Percentage growth inhibition is calculated as: [(Ti−Tz)/(C−Tz)]×100 for concentrations for which Ti>/=Tz [(Ti−Tz)/Tz]×100 for concentrations for which Ti<Tz.
Three dose response parameters are calculated for each experimental agent. […] The drug concentration resulting in total growth inhibition (TGI) is calculated from Ti=Tz. […]

[3] = system: T24 human bladder carcinoma cells; assay: Cytotoxicity, T24 cells; assay type: cell-based; settings: mean ± SEM for 3 experiments
[4] = target: T1, P-glycoprotein (Homo sapiens, UniProt P08183); assay: P-glycoprotein antagonism: sensitivity of NCI/ADR cells to vinblastine; assay type: cell-based; settings: absence or presence of 50 nM vinblastine
T1 construct: NCI/ADR cells that overexpress P-glycoprotein; endogenous in cells; host or cells: NCI/ADR cells
From the text: To determine if this is due to inhibition of drug transport activity by these proteins, the effects of these compounds on P-glycoprotein were further characterized. The effects of the compounds on the sensitivity of NCI/ADR cells to vinblastine and of MCF-7/VP cells to vincristine were examined to evaluate antagonism of P-glycoprotein and MRP1, respectively. FIGS. 4a-b present graphs of antagonism score versus concentration for P-glycoprotein and MRP1, respectively.
The Pgp antagonism score is calculated as the percentage survival of cells in the absence of vinblastine/percentage survival in the presence of vinblastine. […] The MRP1 antagonism score is calculated as the percentage survival of cells in the absence of vincristine/percentage survival in the presence of vincristine. […] Concentrations of Compounds 1-5 above their IC50 toward MCF-7 cells are not indicated. Data for one of three similar experiments is shown.

[5] = system: MCF-7 cells; assay: Cytotoxicity, drug-sensitive MCF-7 cells; settings: read-out: Cytotoxicity IC50, MCF-7; mean ± SEM for 3 experiments
From the text: (§2) These cell lines are resistant to anticancer drugs due to overexpression of the transport proteins P-glycoprotein or MRP1.

[6] = system: MCF-7/VP cells; assay: Cytotoxicity, MCF-7/VP cells that overexpress MRP1; settings: read-out: Cytotoxicity IC50, MCF-7/VP; mean ± SEM for 3 experiments
From the text: as §2

[7] = system: NCI/ADR cells; assay: Cytotoxicity, NCI/ADR cells that overexpress P-glycoprotein
From the text: as §2

T1 sequence (P08183 whole entry): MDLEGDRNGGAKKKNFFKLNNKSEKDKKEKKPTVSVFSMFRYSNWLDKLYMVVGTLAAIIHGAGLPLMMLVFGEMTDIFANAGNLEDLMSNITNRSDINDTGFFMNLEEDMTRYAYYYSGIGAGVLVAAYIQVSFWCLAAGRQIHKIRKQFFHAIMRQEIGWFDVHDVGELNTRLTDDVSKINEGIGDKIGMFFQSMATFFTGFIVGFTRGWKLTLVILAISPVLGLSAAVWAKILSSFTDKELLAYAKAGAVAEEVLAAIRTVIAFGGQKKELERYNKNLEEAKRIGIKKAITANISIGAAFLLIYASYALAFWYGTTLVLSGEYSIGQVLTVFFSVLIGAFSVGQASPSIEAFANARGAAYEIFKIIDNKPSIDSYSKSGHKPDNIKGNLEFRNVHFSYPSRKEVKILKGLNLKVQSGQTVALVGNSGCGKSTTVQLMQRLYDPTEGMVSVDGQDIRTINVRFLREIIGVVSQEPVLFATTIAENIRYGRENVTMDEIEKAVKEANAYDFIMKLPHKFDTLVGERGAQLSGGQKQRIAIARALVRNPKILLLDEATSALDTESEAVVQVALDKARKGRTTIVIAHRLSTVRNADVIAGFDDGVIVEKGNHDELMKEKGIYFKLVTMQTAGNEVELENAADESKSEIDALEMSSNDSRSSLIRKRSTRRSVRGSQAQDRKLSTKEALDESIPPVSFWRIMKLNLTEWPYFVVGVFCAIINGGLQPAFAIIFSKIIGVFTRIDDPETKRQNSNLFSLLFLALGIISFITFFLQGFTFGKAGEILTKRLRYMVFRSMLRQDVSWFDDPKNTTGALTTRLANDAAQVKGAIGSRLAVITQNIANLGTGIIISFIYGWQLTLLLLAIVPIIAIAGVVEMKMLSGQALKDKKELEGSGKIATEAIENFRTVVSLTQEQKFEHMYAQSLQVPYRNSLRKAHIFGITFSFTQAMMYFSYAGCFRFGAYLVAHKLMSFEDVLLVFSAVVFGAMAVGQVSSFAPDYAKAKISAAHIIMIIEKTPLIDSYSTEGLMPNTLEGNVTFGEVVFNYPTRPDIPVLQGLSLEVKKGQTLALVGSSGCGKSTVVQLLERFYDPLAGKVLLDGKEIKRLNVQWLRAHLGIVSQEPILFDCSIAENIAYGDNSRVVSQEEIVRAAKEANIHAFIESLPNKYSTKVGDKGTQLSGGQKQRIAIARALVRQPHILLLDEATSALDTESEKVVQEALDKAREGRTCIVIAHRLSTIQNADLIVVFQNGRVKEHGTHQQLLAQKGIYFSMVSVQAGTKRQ

COc1cccc(CCc2cn(Cc3ccccc3)c3nc(N)nc(C)c23)c1 [Compound 3]
GI50 level (in words) [1]: two digit nanomolar level
GI50 values, level across the tumor cell lines (in words) [2]: micromolar range for 8 of the 56 tumor cell lines
IC50 [3]: 25 ± 2.9 µM
effect on P-glycoprotein-mediated resistance (in words) [4]: dose-dependent sensitization
IC50 [5]: 8 ± 3.5 µM
IC50 [6]: 22 ± 4.2 µM
change of cytotoxic potency by substitution (in words) ([7]; NCI/ADR, relative to unsubstituted Compound 5): enhanced the potency
IC50 ([7]; read-out: Cytotoxicity IC50, NCI/ADR, mean ± SEM for 3 experiments): 5.7 ± 0.7 µM

From patent US8501752B2, “Methods for treating cancer and other pathological proliferating disorders by inhibiting mitosis using pyrrolo[2,3-d]pyrimidines” (Duquesne University of the Holy Ghost, priority 2005, dated 2013)
